Results on one compound are retold here after patent US20240309014A1, “MACROCYCLIC COMPOUNDS AND USES THEREOF” (President and Fellows of Harvard College, priority 2017, published 2024).

Assay [1] has as its system OSC-19 subcutaneous xenograft. Kind of assay: Antitumor activity against OSC-19 subcutaneous xenograft as monotherapy. The class given is in vivo, nude mice. To be noted: Q7Dx2. As to the method:
A human squamous cell carcinoma of the head and neck (SCCHN) cell line OSC-19, which had been cultured in an DMEM/Ham's F-12 (1:1) medium containing 10% FBS, and penicillin and streptomycin, was adjusted to a concentration of 1×10^8 cells/ml with PBS to prepare a cell suspension, and the suspension was mixed with Matrigel™ (BD Bioscience, #366237) in a ratio of 1:1 to prepare a cell suspension in a concentration of 5×10^7 cell/mL. The cell suspension was inoculated in a volume of 100 μL into a subcutaneous part of a right flank of nude mice, 5 weeks of ages (CAnN.Cg-Foxnlnu/CrlCrlj, female, Charles River Laboratories Japan, Inc.). Six days after cell inoculation, the shortest diameter and the longest diameter of a tumor in each mouse were measured by using an electronic digital caliper (Digimatic™ caliper, Mitutoyo Corporation), so as to calculate the volume of the tumor in accordance with the following calculation formulae: […]
On the basis of the volumes of tumors obtained on the first day of administration, the mice were grouped such that averages of the tumor volumes were substantially equal among the groups. The experiment was conducted on groups each consisting of 6 mice. Test compound was dissolved in saline and intravenously administered at doses from 0.06 mg/kg to 0.18 mg/kg once a week for 2 weeks (Q7Dx2 schedule).

Assay [2] relates to α-SMA-positive CAFs in FaDu tumor. Put plainly: Effect on α-SMA-positive CAFs in the FaDu subcutaneous model (FIG. 14). It is filed as in vivo, nude mice. As to the method:
A human squamous cell carcinoma of the head and neck (SCCHN) cell line FaDu, which had been cultured in an RPMI-1640 medium containing 10% FBS, and penicillin-streptomycin (culture medium), was adjusted to a concentration of 5×10^7 cells/mL with culture medium to prepare a cell suspension. The cell suspension was inoculated in a volume of 100 μL into a subcutaneous part of a right flank of nude mice, 6 weeks of ages (CAnN.Cg-Foxnlnu/CrlCrlj, female, Charles River Laboratories Japan, Inc.). Ten days after cell inoculation, the mice were grouped such that averages of the tumor volumes were substantially equal among the groups. The experiment was conducted on groups each consisting of 5 mice. Each test compound was dissolved in DMSO and a solution was stored in the freezer before use. Immediately before the administration, the stock solution was diluted with saline. The test compound in saline was intravenously administered at 20 μg/kg, 60 μg/kg, or 180 μg/kg. […] The area of α-SMA-positive region in the whole tumor was quantified by counting the α-SMA-positive objects using inform 2 software (PerkinElmer Inc.) Area of the tumor region was measured by assessing the hematoxylin-staining area using inform 2 software (PerkinElmer Inc.). […] A suppression rate of the α-SMA- positive area of the test compound-dosing group was calculated with the below formula: […]

The subject of assay [3] is human bladder carcinoma cell line UM-UC-3. Put plainly: Bladder carcinoma cell line growth inhibition assay, UM-UC-3. It is filed as cell-based. To be noted: UMUC3, 72 h, 3 days incubation, CellTiter-Glo 2.0. As to the method:
In this assay, the growth inhibitory activity of Compound (1) in human bladder carcinoma cell lines RT4, RT112/84, and UM-UC-3 was measured. RT4 and RT112/84 cells were maintained in a RPMI-1640 (FUJIFILM Wako Pure Chemical Corporation, 189-02025) medium containing 10% fetal bovine serum (FBS: SIGMA Life Science, 172012-500ML), and penicillin and streptomycin (FUJIFILM Wako Pure Chemical Corporation, 168-23191) in a 5% CO2 incubator (37° C.). UM-UC-3 cells were maintained in an E-MEM (FUJIFILM Wako Pure Chemical Corporation, 051-07615) medium containing 10% FBS, 1 mM Sodium Pyruvate (FUJIFILM Wako Pure Chemical Corporation, 190-14881), and penicillin and streptomycin in a 5% CO2 incubator (37° C.). To each well of a 96 well plate (Coming, 3904), 90 μL of each cell suspension adjusted to a concentration of 5.55×10^3 cells/mL (RT4 or UM-UC-3) or 3.33×10^4 cells/mL (RT112/84) with the culture medium was added, and the cells were incubated overnight in a 5% CO2 incubator (37° C.). On the next day, 10 μL of Compound (1) in three-fold dilution series suspended in the culture medium was added to each well, and the resultant was incubated for 3 days in a 5% CO2incubator (37° C.). Then, cell viability was determined by CellTiter-Glo® 2.0 Assay (Promega Corporation, G9243) with ARVO-X4 Multimode Plate Reader (Perkin-Elmer, Wellesley, MA). […]
On the technique in general: Cellular ATP, detected with luciferase, serves as a proxy for viable cell number.

Regarding `C=C1C[C@@H]2CC[C@@]34C[C@H]5O[C@H]6[C@@H](O3)[C@H]3O[C@H](CC[C@@H]3O[C@H]6C5O4)CC(=O)O[C@@H]3[C@@H](C)[C@@H]4O[C@@H]5C[C@]6(C[C@@H]7O[C@]8(C[C@H](C)[C@@H]9O[C@H](CN)[C@H](O)C[C@@H]9O8)C[C@H](C)[C@@H]7O6)O[C@@H]5C[C@@H]4O[C@H]3C[C@H]3O[C@@H](CC[C@@H]1O2)C[C@@H](C)C3=C` (stereo in doubt) [Compound (1)], the figures for the “Tumor Regression (%)” value in assay [1] (0.06 mg/kg i.v.) and in assay [1] (0.18 mg/kg i.v.) were 59% and 90%, respectively. Further, the α-SMA positive area result is reported as “significantly reduced the α-SMA positive area” in assay [2] (single i.v. dose of 180 μg/kg, Day 6); “significantly reduced the α-SMA positive area” in assay [2] (single i.v. dose of 60 and 180 μg/kg, Day 3). For the same compound, the IC50 (commonly the concentration at which inhibition is half-maximal) in assay [3] was 0.512 nM.
